Laboratory results published in patent publication US9682995B2, “Amino-substituted isothiazoles” (BAYER PHARMA AKTIENGESELLSCHAFT, priority 2013, dated 2017).

Assays:
HeLa = experiment: Proliferation assay (crystal violet), HeLa; type: cell-based; settings: Homo sapiens, 96 h, 4 days, read-out: Inhibition of proliferation IC50 HeLa
In short: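 Tumour cells seeded at 1000–5000 cells/well in medium with 10% FCS, dosed after 24 h at 0.001–10 μM (0.5% DMSO final) for 4 days. Cell number read by crystal-violet staining after glutaraldehyde fixation (A595), normalised to zero-point plate (0%) and untreated cells (100%); IC50 from 4-parameter fit.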

human kinase Mps-1 = human kinase Mps-1 (Homo sapiens (Human), UniProt P33981); experiment: Mps-1 kinase assay (TR-FRET); type: biochemical; settings: 10 μM ATP; read-out: Mps1 avg (IC50 [mol/l])
In short: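 GST-tagged full-length human Mps-1 (~0.5 nM) preincubated 15 min with compound, then reacted 60 min at 22 °C with 10 μM ATP and 1 μM biotinylated peptide in Hepes pH 7.7 buffer. Phosphoproduct detected by TR-FRET (Eu anti-phospho-Ser/Thr, SA-XLent); 665/620 ratio normalised to no-inhibitor and no-enzyme controls.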

Sequence of human kinase Mps-1 (P33981 whole entry): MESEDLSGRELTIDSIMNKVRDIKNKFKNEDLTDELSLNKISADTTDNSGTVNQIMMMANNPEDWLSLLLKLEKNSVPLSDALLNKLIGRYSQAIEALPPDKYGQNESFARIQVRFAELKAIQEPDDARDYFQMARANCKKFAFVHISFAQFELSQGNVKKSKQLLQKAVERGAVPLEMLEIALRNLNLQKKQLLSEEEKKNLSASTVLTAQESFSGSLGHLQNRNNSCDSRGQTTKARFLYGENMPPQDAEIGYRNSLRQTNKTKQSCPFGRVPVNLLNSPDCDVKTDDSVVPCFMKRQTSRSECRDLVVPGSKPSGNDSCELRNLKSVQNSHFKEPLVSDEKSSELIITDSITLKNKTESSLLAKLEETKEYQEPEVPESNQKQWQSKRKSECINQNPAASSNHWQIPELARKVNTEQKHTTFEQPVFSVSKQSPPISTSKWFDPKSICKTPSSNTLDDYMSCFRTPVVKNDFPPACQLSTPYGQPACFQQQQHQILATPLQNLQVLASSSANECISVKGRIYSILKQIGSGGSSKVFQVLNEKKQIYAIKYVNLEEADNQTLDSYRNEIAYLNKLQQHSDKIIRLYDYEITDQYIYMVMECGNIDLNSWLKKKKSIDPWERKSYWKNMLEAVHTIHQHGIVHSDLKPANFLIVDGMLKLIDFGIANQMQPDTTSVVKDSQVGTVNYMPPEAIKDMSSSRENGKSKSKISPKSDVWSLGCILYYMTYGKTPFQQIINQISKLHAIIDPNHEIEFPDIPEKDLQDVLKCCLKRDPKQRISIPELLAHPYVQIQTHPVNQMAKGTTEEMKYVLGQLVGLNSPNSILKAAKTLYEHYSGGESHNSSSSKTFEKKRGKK

IC50 (HeLa) [µM]	IC50 (human kinase Mps-1) [µM]	SMILES
4.1	> 20	Cc1nsc(Nc2cncc(-c3ncco3)n2)c1C(=O)Nc1ccc(Cl)c(F)c1 [Example 63, N-(4-Chloro-3-fluorophenyl)-3-methyl-5-{[6-(1,3-oxazol-2-yl)pyrazin-2-yl]amino}-1,2-thiazole-4-carboxamide]
0.26	> 20	Cc1nsc(Nc2cnc(Cl)cn2)c1C(=O)Nc1ccc(F)c(F)c1 [Example 74, 5-[(5-Chloropyrazin-2-yl)amino]-N-(3,4-difluorophenyl)-3-methyl-1,2-thiazole-4-carboxamide]
1	> 20	Cc1nsc(Nc2cnc3cc(C(F)(F)F)ccc3n2)c1C(=O)Nc1ccc(Cl)c(F)c1 [Example 68, N-(4-Chloro-3-fluorophenyl)-3-methyl-5-{[6-(trifluoromethyl)quinoxalin-2-yl]amino}-1,2-thiazole-4-carboxamide]
7	> 20	Cc1cncc(Nc2snc(C)c2C(=O)Nc2ccc(F)c(F)c2)n1 [Example 69]
2.6	> 20	CCc1cncc(Nc2snc(C)c2C(=O)Nc2ccc(F)c(F)c2)n1 [Example 76, N-(3,4-Difluorophenyl)-5-[(6-ethylpyrazin-2-yl)amino]-3-methyl-1,2-thiazole-4-carboxamide]
1.7	> 20	COc1cncc(Nc2snc(C)c2C(=O)Nc2ccc(F)c(F)c2)n1 [Example 72, N-(3,4-Difluorophenyl)-5-[(6-methoxypyrazin-2-yl)amino]-3-methyl-1,2-thiazole-4-carboxamide]
0.38	> 20	Cc1nsc(Nc2cncc(Cl)n2)c1C(=O)Nc1ccc(F)c(F)c1 [Example 71, 5-[(6-Chloropyrazin-2-yl)amino]-N-(3,4-difluorophenyl)-3-methyl-1,2-thiazole-4-carboxamide]
2.5	16	CCNc1cncc(Nc2snc(C)c2C(=O)Nc2ccc(F)c(F)c2)n1 [Example 78, N-(3,4-Difluorophenyl)-5-{[6-(ethylamino)pyrazin-2-yl]amino}-3-methyl-1,2-thiazole-4-carboxamide]
0.77	> 20	Cc1nsc(Nc2cncc(-n3cccn3)n2)c1C(=O)Nc1ccc(Cl)c(F)c1 [Example 67, N-(4-Chloro-3-fluorophenyl)-3-methyl-5-{[6-(1H-pyrazol-1-yl)pyrazin-2-yl]amino}-1,2-thiazole-4-carboxamide]
2.8	> 20	Cc1nsc(Nc2cnccn2)c1C(=O)Nc1ccc(F)c(F)c1 [Example 65, N-(3,4-Difluorophenyl)-3-methyl-5-(pyrazin-2-ylamino)-1,2-thiazole-4-carboxamide]
1.6	–	Cc1nsc(Nc2cncc(-n3cccn3)n2)c1C(=O)Nc1ccc(F)c(F)c1 [Example 64, N-(3,4-Difluorophenyl)-3-methyl-5-{[6-(1H-pyrazol-1-yl)pyrazin-2-yl]amino}-1,2-thiazole-4-carboxamide]

More lines, now with the values behind:

SMILES	IC50 (HeLa) [µM]	IC50 (human kinase Mps-1) [µM]
Cc1nsc(Nc2cnc(C(F)(F)F)cn2)c1C(=O)Nc1ccc(F)c(F)c1 [Example 81, N-(3,4-Difluorophenyl)-3-methyl-5-{[5-(trifluoromethyl)pyrazin-2-yl]amino}-1,2-thiazole-4-carboxamide]	0.38	> 20
CCOC(=O)c1cnc(Nc2snc(C)c2C(=O)Nc2ccccc2CC)s1 [Example 92, Ethyl 2-({4-[(2-ethylphenyl)-carbamoyl]-3-methyl-1,2-thiazol-5-yl}amino)-1,3-thiazole-5-carboxylate]	10	> 20
CNC(=O)c1ccc(Nc2snc(C)c2C(=O)Nc2ccc(F)c(F)c2)nn1 [Example 80, 6-({4-[(3,4-Difluorophenyl)carbamoyl]-3-methyl-1,2-thiazol-5-yl}amino)-N-methylpyridazine-3-carboxamide]	4.4	> 20
COC(=O)c1cncc(Nc2snc(C)c2C(=O)Nc2ccc(F)c(F)c2)n1 [Example 66, Methyl 6-({4-[(3,4-difluorophenyl)carbamoyl]-3-methyl-1,2-thiazol-5-yl}amino)-pyrazine-2-carboxylate]	2.6	> 20
Cc1nsc(Nc2nc3c(C(F)(F)F)ccnc3s2)c1C(=O)Nc1ccc(F)c(F)c1 [Example 58, N-(3,4-Difluorophenyl)-3-methyl-5-{[7-(trifluoromethyl)[1,3]thiazolo[5,4-b]pyridin-2-yl]amino}-1,2-thiazole-4-carboxamide]	1.5	19
Cc1nsc(Nc2ccc(C#N)cn2)c1C(=O)Nc1ccc(Cl)c(Cl)c1 [Example 62, 5-[(5-Cyanopyridin-2-yl)amino]-N-(3,4-dichlorophenyl)-3-methyl-1,2-thiazole-4-carboxamide]	0.42	> 20
COc1ccc(NC(=O)c2c(C)nsc2Nc2cnc3ccccc3n2)cn1 [Example 94, N-(6-Methoxypyridin-3-yl)-3-methyl-5-(quinoxalin-2-ylamino)-1,2-thiazole-4-carboxamide]	10	> 20
Cc1nsc(Nc2ccc(C(F)(F)F)nn2)c1C(=O)Nc1ccc(F)c(F)c1 [Example 83, N-(3,4-Difluorophenyl)-3-methyl-5-{[6-(trifluoromethyl)pyridazin-3-yl]amino}-1,2-thiazole-4-carboxamide]	0.92	> 20
CCc1ccccc1NC(=O)c1c(C)nsc1Nc1cc(C#N)ccn1 [Example 4, 5-[(4-Cyanopyridin-2-yl)amino]-N-(2-ethylphenyl)-3-methyl-1,2-thiazole-4-carboxamide]	3.2	> 20
COc1ccc(NC(=O)c2c(C)nsc2Nc2nc3ccc(C)cc3s2)cn1 [Example 90, N-(6-Methoxypyridin-3-yl)-3-methyl-5-[(6-methyl-1,3-benzothiazol-2-yl)amino]-1,2-thiazole-4-carboxamide]	10	> 20
COc1ccc(NC(=O)c2c(C)nsc2Nc2cncc(C(F)(F)F)n2)cn1 [Example 84, N-(6-methoxypyridin-3-yl)-3-methyl-5-{[6-(trifluoromethyl)pyrazin-2-yl]amino}-1,2-thiazole-4-carboxamide]	0.29	> 20
CNC(=O)c1cnc(Nc2snc(C)c2C(=O)Nc2ccc(F)c(F)c2)cn1 [Example 75, 5-({4-[(3,4-Difluorophenyl)carbamoyl]-3-methyl-1,2-thiazol-5-yl}amino)-N-methylpyrazine-2-carboxamide]	1.9	> 20
CCc1ccccc1NC(=O)c1c(C)nsc1Nc1nc(C(=O)OC)co1 [Example 91, Methyl 2-({4-[(2-ethylphenyl)carbamoyl]-3-methyl-1,2-thiazol-5-yl}amino)-1,3-oxazole-4-carboxylate]	9.7	–
CCc1ccccc1NC(=O)c1c(C)nsc1Nc1ccncn1 [Example 2, N-(2-Ethylphenyl)-3-methyl-5-(pyrimidin-4-ylamino)-1,2-thiazole-4-carboxamide]	> 10	> 20
CCc1ccccc1NC(=O)c1c(C)nsc1Nc1cnc2cc(Cl)ccc2n1 [Example 86, 5-[(6-Chloroquinoxalin-2-yl)amino]-N-(2-ethylphenyl)-3-methyl-1,2-thiazole-4-carboxamide]	1	> 20
CCOC(=O)c1sc(Nc2snc(C)c2C(=O)Nc2ccc(Cl)c(F)c2)nc1C [Example 95, Ethyl 2-({4-[(4-chloro-3-fluoro-phenyl)carbamoyl]-3-methyl-1,2-thiazol-5-yl}amino)-4-methyl-1,3-thiazole-5-carboxylate]	1.2	> 20
COc1ccc(NC(=O)c2c(C)nsc2Nc2ncc(C(=O)N3CCOCC3)s2)cc1F [Example 93, N-(3-Fluoro-4-methoxyphenyl)-3-methyl-5-{[5-(morpholin-4-ylcarbonyl)-1,3-thiazol-2-yl]amino}-1,2-thiazole-4-carboxamide]	10	> 20
CCc1cnc(Nc2snc(C)c2C(=O)Nc2ccc(F)c(F)c2)cn1 [Example 79, N-(3,4-Difluorophenyl)-5-[(5-ethylpyrazin-2-yl)amino]-3-methyl-1,2-thiazole-4-carboxamide]	0.8	> 20
CNC(=O)c1cncc(Nc2snc(C)c2C(=O)Nc2ccc(F)c(F)c2)n1 [Example 70, 6-({4-[(3,4-Difluorophenyl)carbamoyl]-3-methyl-1,2-thiazol-5-yl}amino)-N-methylpyrazine-2-carboxamide]	6.4	> 20
CCc1ccccc1NC(=O)c1c(C)nsc1Nc1nccc(-c2ccccc2)n1 [Example 5, N-(2-Ethylphenyl)-3-methyl-5-[(4-phenylpyrimidin-2-yl)amino]-1,2-thiazole-4-carboxamide]	> 10	> 20
Cc1nsc(Nc2cnc(Br)cn2)c1C(=O)Nc1ccc(F)c(F)c1 [Example 77, 5-[(5-Bromopyrazin-2-yl)amino]-N-(3,4-difluorophenyl)-3-methyl-1,2-thiazole-4-carboxamide]	0.2	> 20
COc1ccc(NC(=O)c2c(C)nsc2Nc2nc3ccc(F)cc3s2)cn1 [Example 88, 5-[(6-Fluoro-1,3-benzothiazol-2-yl)amino]-N-(6-methoxypyridin-3-yl)-3-methyl-1,2-thiazole-4-carboxamide]	2.1	–
COc1ccc2nc(Nc3snc(C)c3C(=O)Nc3ccc(OC)nc3)sc2c1 [Example 87, 5-[(6-Methoxy-1,3-benzothiazol-2-yl)amino]-N-(6-methoxypyridin-3-yl)-3-methyl-1,2-thiazole-4-carboxamide]	2.8	–
